Laboratory results taken from US12440496B2, “Natriuretic peptide receptor a agonists useful for the treatment of cardiometabolic diseases, kidney disease and diabetes” (Merck Sharp & Dohme LLC, priority 2019, dated 2025).
pEC50: −log10 of the molar value. Structures can show the parent of a compound that is named as a salt.

Target: T1, hNPRA (Homo sapiens, UniProt P16066)
T1 construct: expressed in transfected cells
T1 sequence (P16066 33-1061): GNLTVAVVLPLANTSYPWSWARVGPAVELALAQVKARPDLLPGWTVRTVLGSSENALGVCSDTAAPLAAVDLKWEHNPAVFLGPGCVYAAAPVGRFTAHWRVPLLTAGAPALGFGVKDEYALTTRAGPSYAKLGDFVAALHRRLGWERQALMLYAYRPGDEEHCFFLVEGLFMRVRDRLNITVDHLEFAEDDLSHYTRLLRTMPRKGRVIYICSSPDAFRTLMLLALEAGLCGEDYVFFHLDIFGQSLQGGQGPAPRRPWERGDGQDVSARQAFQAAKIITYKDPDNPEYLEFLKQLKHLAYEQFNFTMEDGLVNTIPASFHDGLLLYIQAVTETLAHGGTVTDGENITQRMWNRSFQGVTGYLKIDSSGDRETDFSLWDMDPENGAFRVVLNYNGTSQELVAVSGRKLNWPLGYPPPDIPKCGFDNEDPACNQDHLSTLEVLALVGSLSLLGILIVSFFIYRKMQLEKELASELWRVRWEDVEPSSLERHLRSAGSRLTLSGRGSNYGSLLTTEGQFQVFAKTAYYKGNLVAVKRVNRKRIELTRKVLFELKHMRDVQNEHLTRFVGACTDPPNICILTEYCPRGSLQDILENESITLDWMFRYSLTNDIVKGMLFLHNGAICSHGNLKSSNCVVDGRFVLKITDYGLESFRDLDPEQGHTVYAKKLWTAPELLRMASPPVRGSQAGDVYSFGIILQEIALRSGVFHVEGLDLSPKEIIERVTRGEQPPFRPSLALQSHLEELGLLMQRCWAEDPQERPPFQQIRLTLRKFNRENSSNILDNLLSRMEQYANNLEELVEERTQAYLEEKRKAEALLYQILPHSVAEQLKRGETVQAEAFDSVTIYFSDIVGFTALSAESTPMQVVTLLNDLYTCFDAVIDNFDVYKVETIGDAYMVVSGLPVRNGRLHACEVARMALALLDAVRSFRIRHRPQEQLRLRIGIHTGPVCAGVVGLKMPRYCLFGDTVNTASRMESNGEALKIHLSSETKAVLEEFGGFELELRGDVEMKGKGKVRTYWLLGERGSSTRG
Assay: NPRA Functional Cell Assay (cGMP HTRF, NPRA HEK JumpIn stable cells)
Format: cell-based
Conditions: cGMP production, 1 hour at 37° C., 10-point dose response
How it was run: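 cGMP HTRF read-out after 1 hour compound treatment at 37° C. of human NPRA-expressing HEK JumpIn cells, 1500 cells/well, in buffer with phosphodiesterase inhibitors IBMX and RO20 (100 uM each). Signal converted to [cGMP] by calibration curve; EC50s fitted by 4-parameter logistic; 50 nM h-ANP as positive response.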

Point of comparison: `CN(C)CC[C@@H](NC(=O)c1nc2cc3c(nc2s1)CC[C@H](C(C)(C)C)C3)c1cccc(C(=O)N2CC3(CNC3)C2)c1` (racemic) [Example 91, rac-(7S)-7-tert-butyl-N-[rac-(1R)-1-[3-(2,6-diazaspiro[3.3]heptane-2-carbonyl)phenyl]-3-(dimethylamino)propyl]-5,6,7,8-tetrahydrothiazolo [5,4-b]quinoline-2-carboxamide], pEC50 6.53. Against it:
- CN(C)S(=O)(=O)Nc1ccc([C@@H](CCN2CCCOCC2)NC(=O)c2nc3cc4c(nc3s2)CC[C@H](C(C)(C)C)C4)cn1 (racemic) [Example 205, rac-(7S)-7-tert-butyl-N-[rac-(1R)-1-[6-(dimethylsulfamoylamino)-3-pyridyl]-3-(1,4-oxazepan-4-ium-4-yl)propyl]-5,6,7,8-tetrahydrothiazolo[5,4-b]quinoline-2-carboxamide; 2,2,2-trifluoroacetate] — 0.28 log units lower, 6.25
- COC1CCN(CC[C@@H](NC(=O)c2cc3cc4c(nc3s2)CC[C@H](C(C)(C)C)C4)c2ccc(-c3ccc(=O)[nH]c3)cc2)CC1 (racemic) [Example 63, rac-(6S)-6-tert-butyl-N-[rac-(1R)-3-(4-methoxypiperidin-1-ium-1-yl)-1-[4-(6-oxo-1H-pyridin-3-yl)phenyl]propyl]-5,6,7,8-tetrahydrothieno[2,3-b]quinoline-2-carboxamide;formate] — 0.61 log units lower, 5.92
- CN1CCC(NC(=O)c2cccc([C@@H](CCN3CCC(C(=O)O)CC3)NC(=O)c3nc4cc5c(nc4s3)CC[C@H](C(C)(C)C)C5)c2)C1 (mixture of isomers) [Example 121, 1-[rac-(3R)-3-[3-[(1-methylpyrrolidin-3-yl)carbamoyl]phenyl]-3-[[rac-(7S)-7-tert-butyl-5,6,7,8-tetrahydrothiazolo [5,4-b]quinoline-2-carbonyl]amino]propyl]piperidine-4-carboxylic acid] — within 0.2 log units, 6.65
- CC(C)(C)[C@H]1CCc2nc3sc(C(=O)N[C@H](CCN4CCCC(O)C4)c4cccc(NS(C)(=O)=O)c4)cc3cc2C1 (mixture of isomers) [Example 12, ammonium; methylsulfonyl-[3-[rac-(1R)-3-(3-hydroxy-1-piperidyl)-1-[[rac-(6S)-6-tert-butyl-5,6,7,8-tetrahydrothieno[2,3-b]quinoline-2-carbonyl]amino]propyl]phenyl] azanide] — 0.43 log units lower, 6.10
- CC(C)(C)C1CCc2nc3sc(C(=O)NC(CCN4CC5C(CO)C5C4)c4ccc(-c5ccc(=O)[nH]c5)cc4)cc3cc2C1 (racemic) [Example 27, rac-(6S)-6-tert-butyl-N-[rac-(1R)-3-[6-(hydroxymethyl)-3-azoniabicyclo[3.1.0]hexan-3-yl]-1-[4-(6-oxo-1H-pyridin-3-yl)phenyl]propyl]-5,6,7,8-tetrahydrothieno[2,3-b]quinoline-2-carboxamide;formate] — within 0.2 log units, 6.39
- CC(C)(C)[C@H]1CCc2nc3sc(C(=O)N[C@H](CCN4CCC(O)(CN)CC4)c4ccc(-c5cnc(O)c(F)c5)cc4)nc3cc2C1 (racemic) [Example 199, [4-hydroxy-1-[rac-(3R)-3-[4-(5-fluoro-6-hydroxy-3-pyridyl)phenyl]-3-[[rac-(7S)-7-tert-butyl-5,6,7,8-tetrahydrothiazolo[5,4-b]quinoline-2-carbonyl]amino]propyl]-4-piperidyl]methylammonium; formate] — within 0.2 log units, 6.65
- CC(C)(C)[C@H]1CCc2nc3sc(C(=O)N[C@H](CCN4CCC(O)CC4)c4cccc(C(=O)NC5CNC5)c4)nc3cc2C1 (racemic) [Example 136, rac-(7S)-7-tert-butyl-N-[rac-(1R)-1-[3-(azetidin-3-ylcarbamoyl)phenyl]-3-(4-hydroxy-1-piperidyl)propyl]-5,6,7,8-tetrahydrothiazolo[5,4-b]quinoline-2-carboxamide] — 0.33 log units higher, 6.86
- CC(C)(C)[C@H]1CCc2nc3sc(C(=O)N[C@H](CCN4CCC(n5ncnn5)CC4)c4ccc(-c5ccc(=O)[nH]c5)cc4)cc3cc2C1 (racemic) [Example 35, rac-(6S)-6-tert-butyl-N-[rac-(1R)-1-[4-(6-oxo-1H-pyridin-3-yl)phenyl]-3-[4-(tetrazol-2-yl)piperidin-1-ium-1-yl]propyl]-5,6,7,8-tetrahydrothieno[2,3-b]quinoline-2-carboxamide;formate] — 0.26 log units lower, 6.27
- O=C1CN(c2ccc([C@@H](CCN3CCC(O)CC3)NC(=O)c3nc4cc5c(nc4s3)CC[C@H](C3(C(F)(F)F)CC3)C5)cn2)C(=O)N1 [Example 221, (S)-N-((R)-1-(6-(2,4-dioxoimidazolidin-1-yl)pyridin-3-yl)-3-(4-hydroxypiperidin-1-yl)propyl)-7-(1-(trifluoromethyl)cyclopropyl)-5,6,7,8-tetrahydrothiazolo[5,4-b]quinoline-2-carboxamide] — 0.59 log units lower, 5.94
- CC(C)(C)[C@H]1CCc2nc3sc(C(=O)N[C@H](CCN4CC5CC4CO5)c4ccc(-c5ccc(=O)[nH]c5)cc4)cc3cc2C1 (mixture of isomers) [Example 53, rac-(6S)-6-tert-butyl-N-[rac-(1R)-3-(2-oxa-5-azoniabicyclo[2.2. 1]heptan-5-yl)-1-[4-(6-oxo-1H-pyridin-3-yl)phenyl]propyl]-5,6,7,8-tetrahydrothieno[2,3-b]quinoline-2-carboxamide;formate] — 0.41 log units lower, 6.12
- CC(C)(C)[C@H]1CCc2nc3sc(C(=O)N[C@H](CCN4CCC(O)CC4)c4cccc(C(=O)N5CC(O)(C(F)(F)F)C5)c4)nc3cc2C1 (racemic) [Example 153, rac-(7S)-7-tert-butyl-N-[rac-(1R)-3-(4-hydroxy-1-piperidyl)-1-[3-[3-hydroxy-3-(trifluoromethyl)azetidine-1-carbonyl]phenyl]propyl]-5,6,7,8-tetrahydrothiazolo[5,4-b]quinoline-2-carboxamide] — 0.39 log units lower, 6.14
- CC(C)(C)[C@H]1CCc2nc3sc(C(=O)N[C@H](CCN4CCCCC4)c4ccc(-c5ccc(O)nc5)cc4)cc3cc2C1 (racemic) [Example 32, rac-(6S)-6-tert-butyl-N-[rac-(1R)-1-[4-(6-oxo-1H-pyridin-3-yl)phenyl]-3-piperidin-1-ium-1-yl-propyl]-5,6,7,8-tetrahydrothieno[2,3-b]quinoline-2-carboxamide;formate] — 0.21 log units lower, 6.32
- CN1CC[C@@H](NC(=O)c2cccc([C@@H](CCN3CCC(O)CC3)NC(=O)c3nc4cc5c(nc4s3)CC[C@H](C(C)(C)C)C5)c2)C1 (racemic) [Example 134, rac-(7S)-7-tert-butyl-N-[rac-(1R)-3-(4-hydroxy-1-piperidyl)-1-[3-[[rac-(3R)-1-methylpyrrolidin-3-yl]carbamoyl]phenyl]propyl]-5,6,7,8-tetrahydrothiazolo[5,4-b]quinoline-2-carboxamide] — 0.37 log units higher, 6.90
- CC(C)(C)[C@H]1CCc2nc3sc(C(=O)N[C@H](CCN4CCCC5(CC5)C4)c4ccc(-c5ccc(=O)[nH]c5)cc4)cc3cc2C1 (racemic) [Example 47, rac-(6S)-6-tert-butyl-N-[rac-(1R)-3-(5-azoniaspiro[2.5]octan-5-yl)-1-[4-(6-oxo-1H-pyridin-3-yl)phenyl]propyl]-5,6,7,8-tetrahydrothieno[2,3-b]quinoline-2-carboxamide;formate] — 0.36 log units lower, 6.17
- CC(C)(C)[C@H]1CCc2nc3sc(C(=O)N[C@H](CCN4CCCCC4)c4ccc(-c5cncnc5)cc4)cc3cc2C1 (racemic) [Example 7, rac-(6S)-6-tert-butyl-N-[rac-(1R)-3-(1-piperidyl)-1-(4-pyrimidin-5-ylphenyl)propyl]-5,6,7,8-tetrahydrothieno[2,3-b]quinoline-2-carboxamide] — 0.83 log units lower, 5.70
